How the values were obtained:
[1] = tested on: AGE-BSA Formation (Bovine Serum Albumin incubated with ribose); assay: In vitro prevention of advanced glycation endproducts (AGEs) accumulation: BSA incubated with ribose, fluorescence; conditions: one week
Experimental: A reduction in fluorescence intensity in the presence of the test compound is an indication of its ability to prevent accumulation of advanced glycation endproducts.
Bovine Serum Albumin was incubated with ribose alone as well as with ribose and different concentrations of the following compounds under aseptic conditions for one week. At the end of the incubation period fluorescence intensity of the samples was measured at excitation and emission wavelengths of 355 nm and 460 nm respectively.

[2] = tested on: AGE-LDL formation (Low density lipoprotein incubated with CuCl2); assay: In vitro inhibition of AGE-LDL formation: LDL incubated with CuCl2, MDA-lysine adduct fluorescence; type: biochemical; conditions: LDL with CuCl2 at 37° C.
Experimental: In vitro Inhibition of AGE-LDL Formation:
Low density lipoprotein (LDL) was incubated with CuCl2 at 37° C. in phosphate buffered saline in the presence and absence of the following compounds. […] Results were expressed as % MDA-lysine adducts accumulation, considering the extent of the same formed upon incubation with CuCl2 alone as 100%.

Row | Structure (SMILES) | % Inhibition of AGE-BSA Formation ([1]; Conc. 1 mM) | % Inhibition of AGE-BSA Formation ([1]; Conc. 100 uM) | % Inhibition of AGE-LDL-formation ([2]; Conc. 250 uM) | % Inhibition of AGE-LDL-formation ([2]; Conc. 100 uM) | further results
1 | O=C(CN1C=CCC(C(=O)NCCOC(=O)c2ccccc2)=C1)Nc1ccccc1 [Compound no. 107, 2-[({1-[2-oxo-2-(phenylamino)ethyl]-1,4-dihydropyridin-3-yl}carbonyl)amino]ethyl benzoate] |  |  |  | + (+ indicate 0-10%) | 
2 | CS(=O)(=O)NNC(=O)C1=CN(CC(=O)c2ccc(Br)cc2)C=CC1 [compound 143, 1-[2-(4-bromophenyl)-2-oxoethyl]-N′-(methylsulfonyl)-1,4-dihydropyridine-3-carbohydrazide] |  | + (+ indicate 0-10%) |  | ++++ (++++ indicate >30%) | 
3 | COc1ccc(C(=O)CN2C=CCC(C(=O)NNS(C)(=O)=O)=C2)cc1 [compound 144, 1-[2-(4-methoxyphenyl)-2-oxoethyl]-N′-(methylsulfonyl)-1,4-dihydropyridine-3-carbohydrazide] | + (+ indicate 0-10%) |  | ++++ (++++ indicate >30%) |  | 
4 | Cc1ccc(S(=O)(=O)NNC(=O)C2=CN(CC(=O)Nc3ccccc3)C=CC2)cc1 [compound 145, 2-[3-({2-[(4-methylphenyl)sulfonyl]hydrazinyl}carbonyl)pyridin-1(4H)-yl]-N-phenylacetamide] |  |  | + (+ indicate 0-10%) |  | % Inhibition of AGE-BSA Formation ([1]; Conc. 250 uM): + (+ indicate 0-10%)
5 | Cc1ccc(S(=O)(=O)NNC(=O)C2=CN(CC(=O)c3cccs3)C=CC2)cc1 [compound 147, N′-[(4-methylphenyl)sulfonyl]-1-[2-oxo-2-(thiophen-2-yl)ethyl]-1,4-dihydropyridine-3-carbohydrazide] |  | +++ (+++ indicate 21-30%) |  | ++++ (++++ indicate >30%) | 
6 | O=C(NCCO)C1=CN(CC(=O)c2ccc(Br)cc2)C=CC1 [compound 148, 1-[2-(4-bromophenyl)-2-oxoethyl]-N-(2-hydroxyethyl)-1,4-dihydropyridine-3-carboxamide] | + (+ indicate 0-10%) |  |  |  | 
7 | O=C(NCCO)C1=CN(CC(=O)c2cccs2)CCC1 [compound 158, N-(2-hydroxyethyl)-1-[2-oxo-2-(thiophen-2-yl)ethyl]-1,4,5,6-tetrahydropyridine-3-carboxamide] |  |  |  | + (+ indicate 0-10%) | % Inhibition of AGE-BSA Formation ([1]; Conc. 250 uM): + (+ indicate 0-10%)
8 | O=C(CN1CCCC(C(=O)NNS(=O)(=O)c2ccccc2)C1)c1cccs1 (centres unmarked) [compound 160, 1-[2-oxo-2-(thiophen-2-yl)ethyl]-N′-(phenylsulfonyl)piperidine-3-carbohydrazide] |  | + (+ indicate 0-10%) |  | + (+ indicate 0-10%) | 
9 | COc1ccc(C(=O)CN2CCCC(C(=O)NNS(=O)(=O)c3ccc(C)cc3)C2)cc1 (centres unmarked) [compound 162, 1-[2-(4-methoxyphenyl)-2-oxoethyl]-N′-[(4-methylphenyl)sulfonyl]piperidine-3-carbohydrazide] |  | + (+ indicate 0-10%) |  | ++++ (++++ indicate >30%) | 
10 | COc1ccc(C(=O)CN2CCCC(C(=O)NNS(C)(=O)=O)C2)cc1 (centres unmarked) [compound 163, 1-[2-(4-methoxyphenyl)-2-oxoethyl]-N′-(methylsulfonyl)piperidine-3-carbohydrazide] |  |  |  | + (+ indicate 0-10%) | % Inhibition of AGE-BSA Formation ([1]; Conc. 250 uM): + (+ indicate 0-10%)
11 | Cc1ccc(C(=O)CN2CCCC(C(=O)NNS(C)(=O)=O)C2)s1 (centres unmarked) [compound 164, N′-(methylsulfonyl)-1-[2-(5-methylthiophen-2-yl)-2-oxoethyl]piperidine-3-carbohydrazide] | + (+ indicate 0-10%) |  | + (+ indicate 0-10%) |  | 
12 | CC(C)(C)c1ccc(S(=O)(=O)NNC(=O)C2CCCN(CC(=O)c3cccs3)C2)cc1 (centres unmarked) [compound 165, N′-[(4-tert-butylphenyl)sulfonyl]-1-[2-oxo-2-(thiophen-2-yl)ethyl]piperidine-3-carbohydrazide] |  | + (+ indicate 0-10%) |  | + (+ indicate 0-10%) | 
13 | CS(=O)(=O)NNC(=O)C1=CCCN(CC(=O)c2ccc(Br)cc2)C1 [compound 167, 1-[2-(4-bromophenyl)-2-oxoethyl]-N′-(methylsulfonyl)-1,2,5,6-tetrahydropyridine-3-carbohydrazide] | + (+ indicate 0-10%) |  | + (+ indicate 0-10%) |  | 
14 | CS(=O)(=O)NNC(=O)C1=CN(CC(=O)c2ccc(Cl)cc2Cl)C=CC1 [compound 168, 1-[2-(2,4-dichlorophenyl)-2-oxoethyl]-N′-(methylsulfonyl)-1,4-dihydropyridine-3-carbohydrazide] |  | + (+ indicate 0-10%) |  | + (+ indicate 0-10%) | 
15 | O=C(NNC(=O)C1=CCCN(CC(=O)c2cccs2)C1)Nc1ccc(Cl)cc1 [compound 171, N-(4-chlorophenyl)-2-({1-[2-oxo-2-(thiophen-2-yl)ethyl]-1,2,5,6-tetrahydropyridin-3-yl}carbonyl)hydrazinecarboxamide] |  | + (+ indicate 0-10%) |  | + (+ indicate 0-10%) | 
16 | COc1ccc(C(=O)CN2CCC=C(C(=O)NNS(C)(=O)=O)C2)cc1 [compound 172, 1-[2-(4-methoxyphenyl)-2-oxoethyl]-N′-(methylsulfonyl)-1,2,5,6-tetrahydropyridine-3-carbohydrazide] |  |  |  |  | % Inhibition of AGE-BSA Formation ([1]; Conc. 50 uM): + (+ indicate 0-10%); % Inhibition of AGE-LDL-formation ([2]; Conc. 50 uM): + (+ indicate 0-10%)
17 | COc1ccc(C(=O)CN2CCC=C(C(=O)NNS(=O)(=O)c3ccc(C)cc3)C2)cc1 [compound 173, 1-[2-(4-methoxyphenyl)-2-oxoethyl]-N′-[(4-methylphenyl)sulfonyl]-1,2,5,6-tetrahydropyridine-3-carbohydrazide] |  | + (+ indicate 0-10%) |  | + (+ indicate 0-10%) | 
18 | COc1ccc(C(=O)CN2CC=CC(C(=O)NNS(C)(=O)=O)C2)cc1 (centres unmarked) [compound 181, 1-[2-(4-methoxyphenyl)-2-oxoethyl]-N′-(methylsulfonyl)-1,2,3,6-tetrahydropyridine-3-carbohydrazide] |  |  |  | + (+ indicate 0-10%) | % Inhibition of AGE-BSA Formation ([1]; Conc. 250 uM): + (+ indicate 0-10%)
19 | Cc1ccc(C(=O)CN2CC=CC(C(=O)NNS(C)(=O)=O)C2)s1 (centres unmarked) [compound 182, N′-(methylsulfonyl)-1-[2-(5-methylthiophen-2-yl)-2-oxoethyl]-1,2,3,6-tetrahydropyridine-3-carbohydrazide] | + (+ indicate 0-10%) |  | +++ (+++ indicate 21-30%) |  | 

Further lines, with some results ahead:

Row | % Inhibition of AGE-BSA Formation ([1]; Conc. 1 mM) | % Inhibition of AGE-BSA Formation ([1]; Conc. 100 uM) | Structure (SMILES) | % Inhibition of AGE-LDL-formation ([2]; Conc. 250 uM) | % Inhibition of AGE-LDL-formation ([2]; Conc. 100 uM) | further results
20 | +++ (+++ indicate 21-30%) |  | CS(=O)(=O)NNC(=O)C1=CN(CC(=O)c2ccc(Cl)s2)C=CC1 [Compound no. 6, 1-[2-(5-chlorothiophen-2-yl)-2-oxoethyl]-N′-(methylsulfonyl)-1,4-dihydropyridine-3-carbohydrazide] | ++++ (++++ indicate >30%) |  | 
21 | +++ (+++ indicate 21-30%) |  | Cc1ccc(C(=O)CN2C=CCC(C(=O)NNS(C)(=O)=O)=C2)s1 [Compound no. 13, N′-(methylsulfonyl)-1-[2-(5-methylthiophen-2-yl)-2-oxoethyl]-1,4-dihydropyridine-3-carbohydrazide] | ++++ (++++ indicate >30%) |  | 
22 |  | + (+ indicate 0-10%) | COc1ccc(C2=CN(CC(=O)c3cccs3)C=C(C(=O)NNS(C)(=O)=O)C2)cc1 [compound 151, 5-(4-methoxyphenyl)-N′-(methylsulfonyl)-1-[2-oxo-2-(thiophen-2-yl)ethyl]-1,4-dihydropyridine-3-carbohydrazide] |  | + (+ indicate 0-10%) | 
23 |  | + (+ indicate 0-10%) | O=C(NNS(=O)(=O)c1ccccc1)C1=CCCN(CC(=O)c2cccs2)C1 [compound 169, 1-[2-oxo-2-(thiophen-2-yl)ethyl]-N′-(phenylsulfonyl)-1,2,5,6-tetrahydropyridine-3-carbohydrazide] |  | + (+ indicate 0-10%) | 
24 | + (+ indicate 0-10%) |  | Cc1ccc(C(=O)CN2CCC=C(C(=O)NNS(C)(=O)=O)C2)s1 [compound 174, N′-(methylsulfonyl)-1-[2-(5-methylthiophen-2-yl)-2-oxoethyl]-1,2,5,6-tetrahydropyridine-3-carbohydrazide] | ++++ (++++ indicate >30%) |  | 
25 | +++ (+++ indicate 21-30%) |  | CS(=O)(=O)NNC(=O)C1=CN(CC(=O)c2cccs2)CCC1 [compound 183, N′-(methylsulfonyl)-1-[2-oxo-2-(thiophen-2-yl)ethyl]-1,4,5,6-tetrahydropyridine-3-carbohydrazide] | ++ (++ indicate 11-20%) |  | 
26 | + (+ indicate 0-10%) |  | CS(=O)(=O)NNC(=O)C1CCCN(CC(=O)c2cccs2)C1 (centres unmarked) [compound 184, N′-(methylsulfonyl)-1-[2-oxo-2-(thiophen-2-yl)ethyl]piperidine-3-carbohydrazide] | +++ (+++ indicate 21-30%) |  | 
27 | + (+ indicate 0-10%) |  | CS(=O)(=O)NNC(=O)C1=CCCN(CC(=O)c2cccs2)C1 [compound 185, N′-(methylsulfonyl)-1-[2-oxo-2-(thiophen-2-yl)ethyl]-1,2,5,6-tetrahydropyridine-3-carbohydrazide] | +++ (+++ indicate 21-30%) |  | 
28 | + (+ indicate 0-10%) |  | CS(=O)(=O)NNC(=O)C1=CN(CC(=O)c2cccs2)CCC1 [compound 187, N′-(methylsulfonyl)-1-[2-oxo-2-(thiophen-2-yl)ethyl]-1,4,5,6-tetrahydropyridine-3-carbohydrazide] |  |  | 
